The record followed here is the NIST ThermoML archive (doi:10.1021/acs.jced.8b00298).

For the data set the following is noted: Liquid.
Setting [1] is: Visual observation in an unstirred cell.

Numbers after ± are expanded uncertainties.

For the compound `CCC(=O)OC(C)COC` (stereo not given) [1-methoxypropan-2-yl propionate], for the setting “Capillary flow”, the Critical pressure amounted to 2600 ± 80 kPa and the Critical temperature came out at 611.7 ± 2.4 K.

As for `CCC(C)c1ccccc1` (stereo not given) [(1-methylpropyl)benzene], where the note is “Visual”, the Critical molar volume is recorded as 0.00048 ± 2e-05 m3/mol and the Critical pressure was 3030 ± 30 kPa. The Critical temperature under setting [1] is given as 653 ± 0.2 K.

Consider `CCCCCCCCOCCCCCCCC` [dioctyl ether], for which, for the setting “Capillary flow”, the Critical pressure came to 1446 ± 85 kPa and the Critical temperature amounted to 727 ± 4 K.

As to `O=C1CCCN1` [2-pyrrolidinone], under “Capillary flow”, the Critical pressure worked out at 5590 ± 220 kPa and the Critical temperature came to 789.1 ± 3.6 K.

Consider `CC(C)C1CCCCC1` [(1-methylethyl)cyclohexane], for which, where the note is “Visual”, the Critical molar volume is 0.00048 ± 2e-05 m3/mol and the Critical pressure is 2940 ± 30 kPa. Moreover, the Critical temperature under setting [1] was determined as 635.3 ± 0.2 K.

As for `COCOC` [dimethoxymethane], under “Capillary flow”, the Critical pressure was 4550 ± 280 kPa and the Critical temperature worked out at 488.9 ± 3.2 K.

With `Cc1ccsc1` [3-methylthiophene], for the setting “Capillary flow”, the Critical pressure turned out to be 4620 ± 140 kPa and the Critical temperature was 607.3 ± 3 K.

Regarding `CCOCCO` [2-ethoxyethan-1-ol], under “Capillary flow”, the Critical pressure stood at 4200 ± 110 kPa and the Critical temperature was found to be 598.9 ± 4 K.

As to `CC(C)C#N` [2-methylpropanenitrile], where the note is “Capillary flow”, the Critical pressure came out at 3672 ± 150 kPa and the Critical temperature was 560.8 ± 2 K.

Consider `O=C1OCCO1` [ethylene carbonate], for which, where the note is “Capillary flow”, the Critical pressure is given as 5280 ± 800 kPa and the Critical temperature came out at 786 ± 10 K.

In the case of `Cc1ccc(C=O)cc1` [4-methylbenzaldehyde], where the note is “Capillary flow”, the Critical pressure was 3920 ± 90 kPa and the Critical temperature is given as 715.8 ± 4 K.

With `S=C=S` [carbon disulfide], under “Visual”, the Critical molar volume came out at 0.000176 ± 9e-06 m3/mol and the Critical pressure is 7330 ± 60 kPa. Further, the Critical temperature under setting [1] was determined as 552.5 ± 0.2 K.

As for `CCC1CCCCC1` [ethylcyclohexane], under “Visual”, the Critical molar volume turned out to be 0.00043 ± 2e-05 m3/mol and the Critical pressure is 3110 ± 30 kPa. The Critical temperature under setting [1] worked out at 605.9 ± 0.2 K.

`COCCOC` [1,2-dimethoxyethane]: where the note is “Visual”, the Critical molar volume was found to be 0.00031 ± 2e-05 m3/mol and the Critical pressure is 3830 ± 40 kPa. The Critical temperature under setting [1] amounted to 535.32 ± 0.24 K.

Consider `C[C@@H]1CCCC[C@H]1C` (relative stereo) [trans-1,2-dimethylcyclohexane], for which, for the setting “Visual”, the Critical molar volume is on record as 0.00044 ± 2e-05 m3/mol and the Critical pressure was 3080 ± 30 kPa. For the same compound, under setting [1], the Critical temperature was found to be 596.3 ± 0.3 K.

Consider `CCCCCCOCCCCCC` [dihexyl ether], for which, where the note is “Capillary flow”, the Critical pressure is on record as 1763 ± 110 kPa and the Critical temperature amounted to 663 ± 3 K.

Regarding `OCCN1CCNCC1` [N-(2-hydroxyethyl)piperazine], under “Capillary flow”, the Critical pressure worked out at 3980 ± 480 kPa and the Critical temperature is reported as 760 ± 12 K.

As to `C=C(C)C(=O)OCCCC` [butyl 2-methyl-2-propenoate], where the note is “Capillary flow”, the Critical pressure is on record as 2520 ± 120 kPa and the Critical temperature is 615.8 ± 4 K.

In the case of `CC(C)C=O` [2-methylpropanal], under “Capillary flow”, the Critical pressure came to 4210 ± 140 kPa and the Critical temperature is on record as 519 ± 3 K.

Turning to `COCCOCCOCCOC` [2,5,8,11-tetraoxadodecane], for the setting “Capillary flow”, the Critical pressure was found to be 2310 ± 60 kPa and the Critical temperature is given as 681.2 ± 2.4 K.

Take `C1CCSC1` [tetrahydrothiophene]: where the note is “Capillary flow”, the Critical pressure is on record as 5430 ± 300 kPa and the Critical temperature came out at 634.6 ± 6 K.

`COCCOCCOC` [2,5,8-trioxanonane]: under “Capillary flow”, the Critical pressure was determined as 2830 ± 120 kPa and the Critical temperature is 619.7 ± 4 K.
